Test results from PubChem BioAssay (NCI).
Values joined by “and” are separate entries in the source; they are usually repeats but may differ in a detail not shown here. Identical values can stand only once.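 Protocol summary: plate cells (96-well), add compound at 5 concentrations, incubate 48 h, interpolate endpoints linearly. GI50 = concentration required for 50% inhibition of growth. TGI is the concentration that stops growth completely.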

Assays:
Test in all cases: NCI tumour cell line growth inhibition, 48 h
[1] = test system: DLD-1 colon
[2] = test system: DMS 114 small cell lung
[3] = test system: DMS 273 small cell lung
[4] = test system: HOP-18 NSCLC
[5] = test system: KM20L2 colon
[6] = test system: LXFL 529 NSCLC
[7] = test system: SNB-78 CNS
[8] = test system: M19-MEL melanoma
[9] = test system: P388/ADR leukemia
[10] = test system: SN12K1 renal
[11] = test system: XF 498 CNS

O=C1NC2(NC(=O)C1=O)Nc1ccccc1S2
TGI [1]: > 67.5 µM
TGI [2]: 79.8 µM
TGI [3]: > 100 µM
TGI [4]: > 100 µM
TGI [5]: > 100000 nM
TGI [6]: > 87.3 µM
TGI [7]: > 100 µM

COc1cccc2c1C(=O)c1c(O)c3c(c(O)c1C2=O)C[C@@](O)(C(C)=O)C[C@@H]3OC1CC(N(C)C)C(O)C(C)O1 (stereo partly specified)
TGI [1]: 3.34 µM and 0.705 µM
GI50 [2]: < 19.9 nM
TGI [2]: 0.302 µM and 0.274 µM
GI50 [3]: 0.0054 µM
TGI [3]: 0.204 µM and 0.18 µM
TGI [4]: 0.585 µM and 2.17 µM
GI50 [5]: < 13.3 nM
TGI [5]: 307 nM and 367 nM
TGI [6]: 1 µM
TGI [8]: 0.292 µM and 0.039 µM
TGI [9]: 135 nM
TGI [10]: 85.1 nM
GI50 [7]: 0.0302 µM and 0.0169 µM
TGI [7]: 1.04 µM and 0.467 µM
TGI [11]: 0.403 µM and 0.0877 µM

Nc1nccc2c1ncn2C1C=C(CO)C(O)C1O (stereo unspecified)
GI50 [1]: 104 µM
TGI [1]: > 1000 µM
GI50 [2]: 2180 nM
TGI [2]: > 1000 µM
GI50 [3]: 6.13 µM
TGI [3]: > 1000 µM
GI50 [6]: > 1 mM
TGI [6]: > 1000 µM
GI50 [8]: 7.78 µM
TGI [8]: > 1000 µM
TGI [9]: 40800 nM
GI50 [7]: > 1000 µM
TGI [7]: > 1000 µM
GI50 [11]: 817 µM
TGI [11]: > 1000 µM

CC1C(O)[C@@]2(OC[C@@]34C(=O)CC5(O)[C@H](CCC6Cc7nc8c(nc7C[C@]65C)CC5CC[C@@H]6C7=C[C@H]9O[C@@]%10(O[C@@](C)(CO)C[C@@H]%10O)C(C)[C@@]9(O)[C@]7(C)[C@@H](O)CC6[C@]5(C)C8)C3=CC[C@H]4C2C)OC1(C)C (stereo partly specified)
TGI [1]: 0.652 µM
TGI [2]: 0.0942 µM
TGI [3]: 0.000455 µM
TGI [4]: 3.43 µM
TGI [5]: 66.9 nM
TGI [8]: > 3.55 µM
TGI [9]: 26.6 nM
TGI [10]: > 3550 nM
TGI [7]: 3.44 µM

Cc1ccc([S+](c2ccccc2)c2cc(C)ccc2C)cc1 (stereo unspecified)
TGI [1]: 19.1 µM
TGI [2]: 13.8 µM
TGI [3]: 15.3 µM
TGI [4]: 26.4 µM
TGI [8]: > 100 µM
